Reference: patent US20240391882A1 (Mirati Therapeutics, Inc., priority 2023, published 2024)

The compounds below were run on T47D (PI3Kα H1047R mutant) cells (assay: Cell viability (CellTiter-Glo 2.0) in T47D cells). Conditions: Homo sapiens, T47D, 72 h, approximately 72 hours.
Format: cell-based
Experimental: This Example illustrates that representative compounds of the invention decrease the viability of cells.
The ability of a compound of Formula (I) to decrease the viability of cells was measured using CellTiter-Glo 2.0 (CTG) Luminescent Cell Viability Assay (#G9241) obtained from Promega (Madison, WI).
To prepare assay plates for viability assays, cells were trypsinized, resuspended in fresh media, and viable cells were counted utilizing trypan blue exclusion. T47D, SKBR3, or MKN1 cells were seeded at 1000 cells in 30 μl per well in a solid white flat bottom 384 cell culture plate (Perkin Elmer #6007680) and incubated at 37° C. overnight.
Assay day 1, cells were dosed using an Echo Liquid Handler (Beckman Coulter) with compounds at a 10 μm starting concentration and serially diluted (1:4) for a total of 10 concentrations. Cells were incubated for approximately 72 hours with the compounds (solubilized in DMSO) at 37° C. After 72 hours of treatment, cell plates were equilibrated to room temperature before adding 15 μl of CTG to each well, plates were then covered in aluminum foil to protect from light, incubated at room temperature for 30 minutes on a microtiter plate shaker, and luminescence readings were collected using a CLARIOstar microplate reader (BMG Labtech, Germany). Percent of vehicle control values were plotted as log(inhibitor) vs. response—Variable slope (four parameters) for curve fitting and IC50 values were determined using XLfit.

IC50 [µM] | Structure (SMILES)
0.0933 | Cc1cc([C@@H](C)Nc2ccc(Cl)nc2C(=O)O)c2nc(N3CCC(F)(F)[C@H]3C)c(C#N)nc2c1 (single isomer, unassigned) [Example 170]
0.651 | Cc1cc([C@@H](C)Nc2cscc2C(=O)O)c2nc(N3CCC(F)(F)CC3)c(C#N)nc2c1 [Example 121, (R)-4-((1-(2-cyano-3-(4,4-difluoropiperidin-1-yl)-7-methylquinoxalin-5-yl)ethyl)amino)thiophene-3-carboxylic acid]
0.344 | Cc1cc([C@@H](C)Nc2ccc(Cl)nc2C(=O)O)c2nc(N3CC[C@H](S(C)(=O)=O)C3)c(C#N)nc2c1 [Example 175, 6-chloro-3-(((R)-1-(2-cyano-7-methyl-3-((S)-3-(methylsulfonyl)pyrrolidin-1-yl)quinoxalin-5-yl)ethyl)amino)picolinic acid]
0.108 | Cc1cc([C@@H](C)Nc2ccc(Cl)nc2C(=O)O)c2nc(N3CCC(F)(F)[C@@H]3C)c(C#N)nc2c1 (single isomer, unassigned) [Example 169]
0.383 | Cc1cc([C@@H](C)Nc2cccnc2C(=O)O)c2nc(N3CCC(F)(F)CC3)c(C#N)nc2c1 [Example 118, (R)-3-((1-(2-cyano-3-(4,4-difluoropiperidin-1-yl)-7-methylquinoxalin-5-yl)ethyl)amino)picolinic acid]
0.0599 | CCOCC1CCN(c2nc3c([C@@H](C)Nc4ccc(Cl)nc4C(=O)O)cc(C)cc3nc2C#N)CC1 [Example 119, (R)-6-chloro-3-((1-(2-cyano-3-(4-(ethoxymethyl)piperidin-1-yl)-7-methylquinoxalin-5-yl)ethyl)amino)picolinic acid]
0.0656 | Cc1cc([C@@H](C)Nc2ccc(Cl)nc2C(=O)O)c2nc(N3CC4(CCO4)C3)c(C#N)nc2c1 [Example 130, (R)-6-chloro-3-((1-(2-cyano-7-methyl-3-(1-oxa-6-azaspiro[3.3]heptan-6-yl)quinoxalin-5-yl)ethyl)amino)picolinic acid]
0.177 | CO[C@H]1CN(c2nc3c([C@@H](C)Nc4ccc(Cl)nc4C(=O)O)cc(C)cc3nc2C#N)CC1(F)F (single isomer, unassigned) [Example 171]
0.17 | CO[C@@H]1CN(c2nc3c([C@@H](C)Nc4ccc(Cl)nc4C(=O)O)cc(C)cc3nc2C#N)CC1(F)F (single isomer, unassigned) [Example 172]
0.0458 | Cc1cc([C@@H](C)Nc2ccc(Cl)nc2C(=O)O)c2nc(N3CCO[C@H](C)C3)c(C#N)nc2c1 [Example 168, 6-chloro-3-(((R)-1-(2-cyano-7-methyl-3-((R)-2-methylmorpholino)quinoxalin-5-yl)ethyl)amino)picolinic acid]
